{
  "source": "paper PMC6543056",
  "about": "(Acta Pharmaceutica Sinica. B, 2019)",
  "target": "Vps34 (Homo sapiens, UniProt Q8NEB9)",
  "sequence (Q8NEB9 whole entry)": "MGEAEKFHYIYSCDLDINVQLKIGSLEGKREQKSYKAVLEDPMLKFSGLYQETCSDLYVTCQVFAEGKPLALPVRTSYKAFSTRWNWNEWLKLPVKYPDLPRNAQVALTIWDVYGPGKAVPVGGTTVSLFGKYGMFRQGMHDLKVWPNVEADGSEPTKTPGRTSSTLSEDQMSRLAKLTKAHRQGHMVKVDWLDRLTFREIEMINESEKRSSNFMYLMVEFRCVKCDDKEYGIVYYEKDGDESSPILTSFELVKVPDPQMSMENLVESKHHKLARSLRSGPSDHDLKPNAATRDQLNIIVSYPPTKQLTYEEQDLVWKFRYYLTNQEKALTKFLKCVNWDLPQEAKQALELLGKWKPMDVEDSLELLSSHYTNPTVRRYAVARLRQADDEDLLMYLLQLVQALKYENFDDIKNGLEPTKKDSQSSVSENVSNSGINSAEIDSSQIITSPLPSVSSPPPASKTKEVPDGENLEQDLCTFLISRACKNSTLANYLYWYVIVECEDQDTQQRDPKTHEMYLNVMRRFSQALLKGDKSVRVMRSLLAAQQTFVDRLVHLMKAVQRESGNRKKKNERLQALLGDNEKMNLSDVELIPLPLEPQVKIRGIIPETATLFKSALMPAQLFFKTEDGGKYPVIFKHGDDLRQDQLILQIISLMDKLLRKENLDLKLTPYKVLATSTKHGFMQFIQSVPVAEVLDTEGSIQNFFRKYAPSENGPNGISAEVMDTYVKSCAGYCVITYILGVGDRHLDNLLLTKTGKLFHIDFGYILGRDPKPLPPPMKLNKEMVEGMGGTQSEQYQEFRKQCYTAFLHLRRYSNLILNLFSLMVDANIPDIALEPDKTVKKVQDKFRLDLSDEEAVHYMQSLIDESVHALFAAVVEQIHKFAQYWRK",
  "assay": "ELISA assay of Vps34 kinase activity",
  "assay_type": "biochemical",
  "conditions": "Fig. S4",
  "data": [
    {"smiles": "O=C1/C(=C/C=C/c2ccccc2)Oc2cc(O)ccc21", "note": "[1d]", "values": [
      {"measurement": "Vps34 inhibition of analogues, SAR (in words)", "value": "abolishment of activity"}
    ]}
  ]
}
